{
  "source": "patent US20250295639A1",
  "about": "“METHODS FOR TREATING HEART DISEASES” (Cytokinetics, Incorporated, priority 2024, published 2025)",
  "tested_on": "patients with symptomatic oHCM",
  "assay": "SEQUOIA-HCM substudy: post-exercise oxygen uptake recovery (VO2Rec)",
  "format": "in vivo, human",
  "procedure": "Patients were randomized 1:1 to aficamten or placebo for 24 weeks with a primary endpoint of pVO2. For this analysis, VO2Rec delay was measured as the time taken after exercise cessation for VO2 to decline by >0%, 12.5% (t12.5%), 25%, or 50% of pVO2. Change in t12.5% from baseline (BL) to week 24 (W24) was the primary endpoint. […]",
  "key": {"[1]": {"conditions": "LSM treatment difference vs placebo"}, "[2]": {"conditions": "change from baseline to week 24"}},
  "data": [
    {"smiles": "CCc1nc(-c2ccc3c(c2)CC[C@H]3NC(=O)c2cnn(C)c2)no1", "note": "[aficamten, (R)—N-(5-(5-ethyl-1,2,4-oxadiazol-3-yl)-2,3-dihydro-1H-inden-1-yl)-1-methyl-1H-pyrazole-4-carboxamide]", "values": [
      {"measurement": "Peak VO2", "setting": "Baseline", "result": 1.1, "unit": "L/h/kg"},
      {"measurement": "VO2 recovery 12.5%", "setting": "Baseline", "result": 45, "unit": "s"},
      {"measurement": "VO2 recovery 25%", "setting": "Baseline", "result": 66, "unit": "s"},
      {"measurement": "VO2 recovery 50%", "setting": "Baseline", "result": 115, "unit": "s"},
      {"measurement": "VO2 recovery delay", "setting": "Baseline", "result": 19, "unit": "s"},
      {"measurement": "Peak VO2, Adjusted Δ", "setting": "[1]", "result": 0.102, "unit": "L/h/kg"},
      {"measurement": "VO2 recovery 12.5%, Adjusted Δ", "setting": "[1]", "result": -8, "unit": "s"},
      {"measurement": "VO2 recovery 25%, Adjusted Δ", "setting": "[1]", "result": -7, "unit": "s"},
      {"measurement": "VO2 recovery 50%, Adjusted Δ", "setting": "[1]", "result": -8, "unit": "s"},
      {"measurement": "VO2 recovery delay, Adjusted Δ", "setting": "[1]", "result": -4, "unit": "s"},
      {"measurement": "Peak VO2", "setting": "Week 24", "result": 1.21, "unit": "L/h/kg"},
      {"measurement": "VO2 recovery 12.5%", "setting": "Week 24", "result": 38, "unit": "s"},
      {"measurement": "VO2 recovery 25%", "setting": "Week 24", "result": 60, "unit": "s"},
      {"measurement": "VO2 recovery 50%", "setting": "Week 24", "result": 107, "unit": "s"},
      {"measurement": "VO2 recovery delay", "setting": "Week 24", "result": 15, "unit": "s"},
      {"measurement": "improvement in pVO2", "setting": "aficamten group, W24", "result": 9, "unit": "%"},
      {"measurement": "improvement in t12.5% (VO2Rec delay)", "setting": "aficamten group, W24", "result": 18, "unit": "%"},
      {"measurement": "improving t12.5% by ≥15 seconds, NNT", "setting": "aficamten vs placebo", "result": 4.8},
      {"measurement": "improving t12.5% by ≥15 seconds, OR", "setting": "aficamten vs placebo", "result": 3.68},
      {"measurement": "Peak VO2, Absolute Δ", "setting": "[2]", "result": 0.108, "unit": "L/h/kg"},
      {"measurement": "VO2 recovery 12.5%, Absolute Δ", "setting": "[2]", "result": -7, "unit": "s"},
      {"measurement": "VO2 recovery 25%, Absolute Δ", "setting": "[2]", "result": -6, "unit": "s"},
      {"measurement": "VO2 recovery 50%, Absolute Δ", "setting": "[2]", "result": -8, "unit": "s"},
      {"measurement": "VO2 recovery delay, Absolute Δ", "setting": "[2]", "result": -4, "unit": "s"}
    ]}
  ]
}
